Data set [1] concerns the target CDK2/Cyclin A2 (Homo sapiens, UniProt P24941). As to the kind of experiment: Inhibition of CDK2/Cyclin A2 (unknown origin) preincubated for 10 mins followed by substrate addition and measured after 60 mins in presence of ATP by ADP-Glo reagent based assay. Format: protein-complex assay. (In general: ADP-Glo first removes unused ATP, then detects ADP through luciferase.)

Data set [2] addresses Cyclin-dependent kinase 1/cyclin B1 (Homo sapiens) (UniProt P06493+P14635). The data set is described as follows: Inhibition of CDK1/Cyclin B1 (unknown origin) at 200 nM preincubated for 10 mins followed by substrate addition and measured after 60 mins in presence of ATP by ADP-Glo reagent based assay relative to control. Format: protein-complex assay. The settings on record: time 70.0 min.

Data set [3] has as its target CDK6/cyclin D3 (Homo sapiens) (UniProt P30281+Q00534). The data set is described as follows: Inhibition of CDK6/cyclin D3 (unknown origin) at 200 nM preincubated for 10 mins followed by substrate addition and measured after 60 mins in presence of ATP by ADP-Glo reagent based assay relative to control. Format: protein-complex assay. The settings on record: time 70.0 min.

The target of data set [4] is Dual specificity protein kinase CLK3 (Homo sapiens) (UniProt P49761). As to the kind of experiment: Inhibition of CLK3 (unknown origin) at 100 nM preincubated for 10 mins followed by substrate addition and measured after 60 mins in presence of ATP by ADP-Glo reagent based assay relative to control. The settings on record: time 70.0 min.
Sequence of Dual specificity protein kinase CLK3 (Homo sapiens) (P49761 whole entry, looked up): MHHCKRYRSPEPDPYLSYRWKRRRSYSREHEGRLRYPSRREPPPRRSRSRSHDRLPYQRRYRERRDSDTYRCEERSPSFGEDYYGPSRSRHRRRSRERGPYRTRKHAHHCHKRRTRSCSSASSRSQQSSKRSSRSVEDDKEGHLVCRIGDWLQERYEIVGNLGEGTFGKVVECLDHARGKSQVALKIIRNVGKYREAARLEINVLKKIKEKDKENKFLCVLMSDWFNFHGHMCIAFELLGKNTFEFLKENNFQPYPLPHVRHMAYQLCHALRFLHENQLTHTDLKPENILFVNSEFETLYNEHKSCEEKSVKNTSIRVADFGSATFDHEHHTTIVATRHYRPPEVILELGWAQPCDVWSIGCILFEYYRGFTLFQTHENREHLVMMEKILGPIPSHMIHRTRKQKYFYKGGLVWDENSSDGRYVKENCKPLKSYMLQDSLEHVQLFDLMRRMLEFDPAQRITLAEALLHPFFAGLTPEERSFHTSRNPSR
Data set [5] deals with NCI-H1299. The data set is described as follows: Antiproliferative activity against human NCI-H1299 cells incubated for 72 hrs by MTT assay. Format: functional, cell-based. The settings on record: NCI-H1299, 72 h. Background: Formazan colour is commonly taken as a measure of viable cells.
In data set [6] the target is Mitogen-activated protein kinase 15 (Homo sapiens) (UniProt Q8TD08). As to the kind of experiment: Inhibition of ERK7 (unknown origin) at 500 nM preincubated for 10 mins followed by substrate addition and measured after 60 mins in presence of ATP by ADP-Glo reagent based assay relative to control. The settings on record: time 70.0 min.
Sequence of Mitogen-activated protein kinase 15 (Homo sapiens) (Q8TD08 whole entry): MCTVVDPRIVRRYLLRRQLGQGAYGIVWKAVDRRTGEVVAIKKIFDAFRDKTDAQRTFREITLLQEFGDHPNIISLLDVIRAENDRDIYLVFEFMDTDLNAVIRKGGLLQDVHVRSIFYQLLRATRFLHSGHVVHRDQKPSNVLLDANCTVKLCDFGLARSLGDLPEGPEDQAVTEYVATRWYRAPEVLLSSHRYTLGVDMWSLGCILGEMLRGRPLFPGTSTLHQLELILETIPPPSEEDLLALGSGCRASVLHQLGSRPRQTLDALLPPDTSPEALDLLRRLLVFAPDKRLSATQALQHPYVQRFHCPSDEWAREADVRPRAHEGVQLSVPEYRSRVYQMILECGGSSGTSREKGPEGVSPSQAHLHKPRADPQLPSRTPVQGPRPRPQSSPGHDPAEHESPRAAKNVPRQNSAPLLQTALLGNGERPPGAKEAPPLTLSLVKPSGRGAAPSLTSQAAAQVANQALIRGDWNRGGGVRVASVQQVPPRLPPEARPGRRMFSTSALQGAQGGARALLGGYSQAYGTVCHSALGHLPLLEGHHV
In data set [7] the test system is NCI-H1975. As to the kind of experiment: Inhibition of colony formation in human Osimertinib-resistant NCI-H1975 cell assessed as inhibition of cell growth at 125 to 2000 nM measured after 2 weeks by crystal violet staining based analysis. Format: functional. The settings on record: dose 125-2000 nM.
Data set [8] addresses Cyclin-dependent kinase 9 (Homo sapiens) (UniProt P50750). As to the kind of experiment: Inhibition of CDK9 in human Osimertinib-resistant NCI-H1975 cell assessed as suppression of p-RNAP II phosphorylation at Ser2 residue incubated for 8 hrs by Western blot analysis. Format: cell-based. The settings on record: dose 0.05-1 µM. (In general: A western blot detects proteins with antibodies after separation by electrophoresis.)

The subject of data set [9] is NCI-H1975. The data set is described as follows: Downregulation of Mcl-1 level in human Osimertinib-resistant NCI-H1975 cell at 500 nM measured after 8 hrs by Western blotting analysis. Format: functional, cell-based.
Data set [10] concerns NCI-H1975. The data set is described as follows: Downregulation of Bcl-2 level in human Osimertinib-resistant NCI-H1975 cell measured after 16 hrs by Western blot analysis. The settings on record: dose 125-2000 nM. Format: functional, cell-based.
Data set [11] in a line: Induction of apoptosis in human Osimertinib-resistant NCI-H1975 cell assessed as necrotic cells at 500 nM measured after 16 hrs by Annexin V-FITC and PI staining based analysis (reference value: 0.50%). Format: functional.
Data set [12] in a line: Oral bioavailability in Sprague-Dawley rat at 20 mg/kg measured upto 24 hrs. The settings on record: in vivo. Format: ADME, organism-based.
Data set [13] can be described thus: Solubility of the compound in water at pH 7.4 by shake flask method. Format: physicochemical.
The nature of data set [14]: Toxicity in ICR mouse assessed as effect on physical appearance at 100 mg/kg, iv measured for 8 to 9 days. Format: organism-based. The settings on record: in vivo, time 8-9 day.
For data set [15], the system named is Osimertinib-resistant HCC827AR cell. The data set is described as follows: Inhibition of cell growth in 3D-cultured human Osimertinib-resistant HCC827 cell by DAPI and PI staining based analysis. The settings on record: dose 0.049-3.125 µM. Format: functional.
For data set [16], the system named is NCI-H1975. The data set is described as follows: Inhibition of cell growth in 3D-cultured human Osimertinib-resistant NCI-H1975 cell by DAPI and PI staining based analysis. Format: functional. The settings on record: dose 0.049-3.125 µM.
Data set [17] is described as follows: Antitumor activity against patient derived #2862 lung cancer organoid assessed as inhibition of growth measured after 4 days. Format: functional, tissue-based. The settings on record: Homo sapiens, 96 h.

≈ marks a conversion by molar mass, not a printed value. Calls of active or inactive are those of the source. The calls are words filed in the database; no cut-off is given here.

Sequence of Cyclin-dependent kinase 1/cyclin B1 (Homo sapiens) (P06493 whole entry, looked up): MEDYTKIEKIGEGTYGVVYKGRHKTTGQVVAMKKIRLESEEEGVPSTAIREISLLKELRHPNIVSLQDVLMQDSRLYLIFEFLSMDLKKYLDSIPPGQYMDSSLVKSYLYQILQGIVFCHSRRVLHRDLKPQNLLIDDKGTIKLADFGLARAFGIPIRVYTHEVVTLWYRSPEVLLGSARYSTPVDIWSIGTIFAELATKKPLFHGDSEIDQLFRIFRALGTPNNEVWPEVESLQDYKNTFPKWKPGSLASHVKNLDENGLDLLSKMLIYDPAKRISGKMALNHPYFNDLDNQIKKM
Sequence of Cyclin-dependent kinase 1/cyclin B1 (Homo sapiens) (P14635 whole entry, looked up): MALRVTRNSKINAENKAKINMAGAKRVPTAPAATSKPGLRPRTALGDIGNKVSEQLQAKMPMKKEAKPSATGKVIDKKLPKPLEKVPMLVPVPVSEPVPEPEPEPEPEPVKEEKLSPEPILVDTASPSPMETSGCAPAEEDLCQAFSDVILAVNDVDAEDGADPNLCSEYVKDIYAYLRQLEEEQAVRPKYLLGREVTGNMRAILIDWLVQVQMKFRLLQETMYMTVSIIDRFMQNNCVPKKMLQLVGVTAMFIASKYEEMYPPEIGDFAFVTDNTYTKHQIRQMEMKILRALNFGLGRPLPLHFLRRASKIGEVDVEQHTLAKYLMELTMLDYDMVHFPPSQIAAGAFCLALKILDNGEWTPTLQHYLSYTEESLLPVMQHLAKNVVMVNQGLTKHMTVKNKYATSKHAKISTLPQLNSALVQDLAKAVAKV
Sequence of Cyclin-dependent kinase 9 (Homo sapiens) (P50750 whole entry): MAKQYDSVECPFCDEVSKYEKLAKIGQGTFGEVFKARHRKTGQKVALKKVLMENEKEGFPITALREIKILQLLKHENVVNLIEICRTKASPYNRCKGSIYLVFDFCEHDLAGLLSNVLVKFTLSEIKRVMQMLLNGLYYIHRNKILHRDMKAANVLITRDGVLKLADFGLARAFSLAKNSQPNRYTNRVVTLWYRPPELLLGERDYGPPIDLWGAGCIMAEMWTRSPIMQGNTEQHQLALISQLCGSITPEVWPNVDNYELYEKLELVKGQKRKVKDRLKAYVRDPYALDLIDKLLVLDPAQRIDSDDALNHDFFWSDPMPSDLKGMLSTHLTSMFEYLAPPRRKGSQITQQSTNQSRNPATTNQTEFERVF

Broadly, the IC50 is the concentration at which inhibition is half-maximal. One may read the inhibition as the drop in the measured response relative to a control, in per cent. By bioavailability is commonly meant the share of a dose that reaches the circulation, judged against a reference dose that is usually intravenous. A lower bioavailability goes with little systemic uptake. The thermodynamic solubility is the concentration in solution at equilibrium with solid. `O=C(NCCN1CCOCC1)c1ccc2cc1OCCCCCCOc1cc(ccc1F)-c1nc(ncc1F)N2`: the figures for the IC50 in data set [1], in data set [5] and in data set [17] were 209 nM, 85 nM and 940 nM, respectively. Moreover, the inhibition in [2] was 33%; in [3], 11.6%; in data set [4], 5.7%; in data set [6] it was 83.5%; in [8], “Dose-Dependent Effect”; in [15] it was “Dose-Dependent Effect”. The inhibition entry in [16] is “Dose-Dependent Effect”. Moreover, the inhibition entry in data set [7] is “Active”. For the same compound, in data set [9], the result was Active. For the same compound, the values for the Activity entry in data set [10], in data set [11] and in data set [14] were “Dose-Dependent Effect”, 2.92% and “Non-Toxic”, respectively. Also, the bioavailability in [12] turned out to be 8%. The solubility (thermodynamic) in data set [13] was 626 µg/mL (≈ 1130 µM).

(Values after ChEMBL document CHEMBL5390253, “Discovery of Selective and Potent Macrocyclic CDK9 Inhibitors for the Treatment of Osimertinib-Resistant Non-Small-Cell Lung Cancer” (J Med Chem, 2023).)
